This note sets out measurements from patent publication US9040524B2, “Antifungal 5,6-dihydro-4H-pyrrolo[1,2-a][1,4]-benzodiazepines and 6H-pyrrolo[1,2-a][1,4]benzodiazepines substituted with bicycle benzene derivatives” (JANSSEN PHARMACEUTICA NV, priority 2010, dated 2015).

By melting point is commonly meant the temperature of the solid-liquid transition.

One data set has as its system Microsporum canis. Kind of data set: Antifungal activity in vitro, resazurin growth inhibition screen: Microsporum canis. Format: cell-based. Particulars: Microsporum canis B68128; read-out: Inf. B pIC50 (converted). In short, it runs like this:
(§1)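 Compound serial dilutions (2- or 4-fold), highest in-test concentration 64 μM, in U-bottom 96-well plates. Each well inoculated with 10^3 cfu fungus in RPMI-MOPS medium; growth read by resazurin against drug-free (100%) and medium-only (0%) controls.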
For orientation: Alamar Blue is a resazurin reagent that responds to reducing activity.

Data set [1] concerns Trichophyton mentagrophytes. The data set can be described thus: Antifungal activity in vitro, resazurin growth inhibition screen: Trichophyton mentagrophytes. It counts as cell-based. Particulars: Trichophyton mentagrophytes B70554; read-out: Inf. G pIC50 (converted). The essentials:
as §1

In a further data set the test system is Trichophyton rubrum. Kind of data set: Antifungal activity in vitro, resazurin growth inhibition screen: Trichophyton rubrum. Particulars: Trichophyton rubrum B68183; read-out: Inf. C pIC50 (converted). Format: cell-based. The essentials:
as §1

Another data set concerns Scedosporium apiospermum. The data set can be described thus: Antifungal activity in vitro, resazurin growth inhibition screen: Scedosporium apiospermum. Format: cell-based. To be noted: Scedosporium apiospermum IHEM3817; read-out: Inf. H pIC50 (converted). As to the method: (§2) The standard susceptibility screen was performed in 96-well plates (U-bottom, Greiner Bio-One). Serial dilutions (2-fold or 4-fold) of 20 mM compound stock solutions were made in 100% DMSO, followed by an intermediate dilution step in water. These serial dilutions (10 μl) were then spotted onto test-plates that could be stored in the dark at 4° C. for a maximum period of 2 weeks. An adequate broad dose-range was included with 64 μM as the highest in-test concentration. […] The different fungal species/isolates (Table 3a) were cryopreserved and 1/1000 diluted in medium just prior to use. A standard inoculum of 200 μl containing 10^3 colony-forming unit (cfu) was then added to each well. A positive control (100% growth=fungal culture without antifungal) and a negative control (0% growth=RPMI-MOPS medium) were included on each plate.

For a further data set, the system named is Scedosporium prolificans. Kind of data set: Antifungal activity in vitro, resazurin growth inhibition screen: Scedosporium prolificans. Format: cell-based. Particulars: Lomentospora prolificans; Scedosporium prolificans IHEM21157; read-out: Inf. I pIC50 (converted). As to the method:
as §2

A further data set deals with Sporothrix schenkii. The data set can be described thus: Antifungal activity in vitro, resazurin growth inhibition screen: Sporothrix schenkii. Format: cell-based. To be noted: Sporothrix schenkii B62482; read-out: Inf. A pIC50 (converted). In short, it runs like this:
as §1

Another data set has as its system Aspergillus fumigatus. The data set can be described thus: Antifungal activity in vitro, resazurin growth inhibition screen: Aspergillus fumigatus. It counts as cell-based. Particulars: Aspergillus fumigatus B42928; read-out: Inf. E pIC50 (converted). The essentials: as §1
The next data set deals with Candida parapsilosis. Kind of data set: Antifungal activity in vitro, resazurin growth inhibition screen: Candida parapsilosis. Format: cell-based. Particulars: Lodderomyces parapsilosis; Candida parapsilosis B66126; read-out: Inf. D pIC50 (converted). In short, it runs like this: as §1
A further data set deals with Cryptococcus neoformans. The data set can be described thus: Antifungal activity in vitro, resazurin growth inhibition screen: Cryptococcus neoformans. It counts as cell-based. To be noted: Cryptococcus neoformans B66663; read-out: Inf. F pIC50 (converted). In short, it runs like this:
as §1

Another data set deals with Rhizopus oryzae. The data set can be described thus: Antifungal activity in vitro, resazurin growth inhibition screen: Rhizopus oryzae. Format: cell-based. To be noted: Rhizopus arrhizus; Rhizopus oryzae IHEM5223; read-out: Inf. J pIC50 (converted). Here is the method: as §2
The next data set deals with Rhizomucor miehei. Kind of data set: Antifungal activity in vitro, resazurin growth inhibition screen: Rhizomucor miehei. Format: cell-based. Particulars: Rhizomucor miehei IHEM13391; read-out: Inf. K pIC50 (converted). Here is the method: as §2

`Cl.Clc1cccc2c1CNC(c1ccc3c(c1)CCC3)c1cccn1-2` (stereo not shown) [Compound 12, 7-chloro-4-(2,3-dihydro-1H-inden-5-yl)-5,6-dihydro-4H-pyrrolo[1,2-a][1,4]benzo-diazepine .HCl] showed a melting point of 242.7 to 243.5 °C. Besides, the IC50 with Microsporum canis was 380 nM. In data set [1], the IC50 is 58.9 nM. Also, the IC50 with Trichophyton rubrum was 138 nM. In addition, the IC50 with Scedosporium apiospermum was > 64600 nM. Also, the IC50 with Scedosporium prolificans was > 64600 nM. The IC50 with Sporothrix schenkii is 64600 nM. Also, the IC50 in the data set on Aspergillus fumigatus is 151 nM. In addition, the IC50 with Candida parapsilosis is 575 nM. The IC50 with Cryptococcus neoformans was 3020 nM. The IC50 with Rhizopus oryzae is > 64600 nM. For the same molecule, the IC50 in the data set with Rhizomucor miehei is > 64600 nM.
In turn, `Clc1cccc2c1CN=C(c1ccc3c(c1)CCC3)c1cccn1-2` [Compound 20, 7-chloro-4-(2,3-dihydro-1H-inden-5-yl)-6H-pyrrolo[1,2-a][1,4]benzodiazepine] had a melting point of 181.3 to 182.7 °C. In addition, in the data set with Microsporum canis, the IC50 was 129 nM. Further, the IC50 with Trichophyton rubrum was 70.8 nM. The IC50 with Scedosporium apiospermum is 8910 nM. The IC50 in the data set with Scedosporium prolificans was 851 nM. Besides, the IC50 in the data set with Sporothrix schenkii was 2000 nM. For the same molecule, the IC50 with Aspergillus fumigatus was 269 nM. In addition, the IC50 in the data set on Candida parapsilosis was 339 nM. Moreover, the IC50 in the data set with Cryptococcus neoformans was 380 nM. Further, in the data set on Rhizopus oryzae, the IC50 is > 11200 nM. Also, in the data set with Rhizomucor miehei, the IC50 is 13800 nM.
With `Clc1cccc2c1CN=C(c1ccc3c(c1)CCCC3)c1cccn1-2` [Compound 21, 7-chloro-4-(5,6,7,8-tetrahydro-2-naphthalenyl)-6H-pyrrolo[1,2-a][1,4]benzo-diazepine], the melting point was in the range of 180 to 181.5 °C. In the data set with Microsporum canis, the IC50 is 490 nM. In addition, in [1], the IC50 is 603 nM. Also, the IC50 in the data set with Trichophyton rubrum was 170 nM. Moreover, in the data set with Scedosporium apiospermum, the IC50 is 120 nM. In the data set on Scedosporium prolificans, the IC50 was 39.8 nM. The IC50 in the data set with Sporothrix schenkii is 1380 nM. In addition, the IC50 in the data set with Aspergillus fumigatus is 46.8 nM. In the data set with Candida parapsilosis, the IC50 is 1410 nM. Moreover, the IC50 in the data set with Cryptococcus neoformans is 339 nM. In addition, the IC50 in the data set with Rhizopus oryzae is 2000 nM. In addition, the IC50 with Rhizomucor miehei was 933 nM.
As for `Clc1cc(Cl)c2c(c1)CN=C(c1ccc3c(c1)CCC3)c1cccn1-2` [Compound 25, 8,10-dichloro-4-(2,3-dihydro-1H-inden-5-yl)-6H-pyrrolo[1,2-a][1,4]benzodiazepine], the melting point lay within 178.5 to 180.2 °C. The IC50 in the data set with Microsporum canis is 832 nM. For the same molecule, in data set [1], the IC50 is 380 nM. For the same molecule, in the data set on Trichophyton rubrum, the IC50 was 794 nM. Further, in the data set with Scedosporium apiospermum, the IC50 is > 64600 nM. Further, the IC50 in the data set on Sporothrix schenkii was 2000 nM. Also, in the data set on Aspergillus fumigatus, the IC50 is 155 nM. Further, in the data set with Candida parapsilosis, the IC50 is > 64600 nM. Also, the IC50 in the data set on Cryptococcus neoformans is 1000 nM. Also, the IC50 in the data set on Rhizopus oryzae is > 64600 nM. Further, the IC50 with Rhizomucor miehei is 39800 nM.
`Clc1cccc2c1CN=C(c1ccc3c(c1)CCO3)c1cccn1-2` [Compound 35, 7-chloro-4-(2,3-dihydro-5-benzofuranyl)-6H-pyrrolo[1,2-a][1,4]benzodiazepine] came in with a melting point of 206.4 to 208.9 °C. Besides, in the data set on Microsporum canis, the IC50 is 1000 nM. Besides, the IC50 in data set [1] is 794 nM. Moreover, the IC50 in the data set on Trichophyton rubrum was 437 nM. Further, in the data set with Scedosporium apiospermum, the IC50 was 38900 nM. In addition, the IC50 in the data set with Scedosporium prolificans was 1290 nM. Also, the IC50 in the data set on Sporothrix schenkii was 14100 nM. In addition, in the data set with Aspergillus fumigatus, the IC50 was 2000 nM. Also, in the data set on Candida parapsilosis, the IC50 is 2000 nM. In addition, the IC50 in the data set with Cryptococcus neoformans was 5010 nM. In addition, the IC50 in the data set on Rhizopus oryzae was > 64600 nM. The IC50 in the data set on Rhizomucor miehei is 53700 nM.
`Clc1cccc2c1CN=C(c1ccc3c(c1)OCC3)c1cccn1-2` [Compound 36, 7-chloro-4-(2,3-dihydro-6-benzofuranyl)-6H-pyrrolo[1,2-a][1,4]benzodiazepine] had a melting point of 180.5 to 181.2 °C. Further, the IC50 in the data set on Microsporum canis was 676 nM. Further, the IC50 in data set [1] is 240 nM. Moreover, the IC50 in the data set on Trichophyton rubrum was 132 nM. In addition, the IC50 in the data set with Scedosporium apiospermum was 2820 nM. Besides, the IC50 with Scedosporium prolificans is 1200 nM. Further, in the data set with Sporothrix schenkii, the IC50 is 12900 nM. The IC50 with Aspergillus fumigatus was 2000 nM. Also, the IC50 in the data set with Candida parapsilosis is 20900 nM. The IC50 in the data set on Cryptococcus neoformans is 50100 nM. The IC50 in the data set with Rhizopus oryzae is > 64600 nM. In the data set with Rhizomucor miehei, the IC50 was > 64600 nM.
In turn, `Clc1cc(Cl)c2c(c1)-n1cccc1C(c1ccc3c(c1)CCO3)=NC2` [Compound 45, 7,9-dichloro-4-(2,3-dihydro-5-benzofuranyl)-6H-pyrrolo[1,2-a][1,4]benzodiazepine] showed a melting point of 190 to 191.8 °C. In addition, in the data set with Microsporum canis, the IC50 was 257 nM. For the same molecule, in [1], the IC50 is 331 nM. The IC50 with Trichophyton rubrum was 331 nM. The IC50 in the data set on Scedosporium apiospermum was 32400 nM. For the same molecule, in the data set on Scedosporium prolificans, the IC50 was 6170 nM. The IC50 with Sporothrix schenkii is 3020 nM. The IC50 with Aspergillus fumigatus is 1000 nM. Besides, the IC50 in the data set with Candida parapsilosis was 7940 nM. In addition, the IC50 in the data set with Cryptococcus neoformans was 1000 nM. Also, the IC50 in the data set on Rhizopus oryzae is > 64600 nM. Further, the IC50 in the data set with Rhizomucor miehei is > 64600 nM.
`O=C1CCc2cc(C3=NCc4c(Cl)cccc4-n4cccc43)ccc21` [Compound 56, 5-(7-chloro-6H-pyrrolo[1,2-a][1,4]benzodiazepin-4-yl)-2,3-dihydro-1H-inden-1-one] yielded a melting point of 226.7 to 227.6 °C. The IC50 in the data set with Microsporum canis is 170 nM. In data set [1], the IC50 was 562 nM. Also, the IC50 in the data set on Trichophyton rubrum was 182 nM. In addition, in the data set with Scedosporium apiospermum, the IC50 was 447 nM. Further, the IC50 in the data set with Scedosporium prolificans is 110 nM. For the same molecule, the IC50 with Sporothrix schenkii is 2240 nM. Further, the IC50 in the data set on Aspergillus fumigatus was 363 nM. Moreover, in the data set on Candida parapsilosis, the IC50 was 2880 nM. The IC50 in the data set with Cryptococcus neoformans was 1320 nM. In addition, the IC50 with Rhizopus oryzae is > 64600 nM. In addition, the IC50 with Rhizomucor miehei was 4790 nM.
`O=C1OCc2ccc(C3=NCc4c(Cl)cccc4-n4cccc43)cc21` [Compound 62, 6-(7-chloro-6H-pyrrolo[1,2-a][1,4]benzodiazepin-4-yl)-1(3H)-isobenzofuranone]: the melting point is 107.9 °C (dec.). Further, in the data set with Microsporum canis, the IC50 was > 64600 nM. In addition, the IC50 in data set [1] is > 64600 nM. For the same molecule, in the data set on Trichophyton rubrum, the IC50 was > 64600 nM. Also, the IC50 in the data set with Sporothrix schenkii is > 64600 nM. In addition, the IC50 in the data set with Aspergillus fumigatus is > 64600 nM. For the same molecule, in the data set with Candida parapsilosis, the IC50 was > 64600 nM. Besides, the IC50 with Cryptococcus neoformans was > 64600 nM.
On to `O=C1OCc2ccc(C3=NCc4c(Cl)cc(Cl)cc4-n4cccc43)cc21` [Compound 64, 6-(7,9-dichloro-6H-pyrrolo[1,2-a][1,4]benzodiazepin-4-yl)-1 (3H)-isobenzofuranone], for which the melting point lay in the range of 210.5 to 212 °C. In the data set with Microsporum canis, the IC50 is > 64600 nM. Besides, the IC50 in data set [1] is > 64600 nM. Also, the IC50 in the data set with Trichophyton rubrum was > 64600 nM. In addition, the IC50 in the data set on Sporothrix schenkii was > 64600 nM. In addition, the IC50 in the data set with Aspergillus fumigatus is > 64600 nM. Moreover, in the data set with Candida parapsilosis, the IC50 is > 64600 nM. The IC50 in the data set on Cryptococcus neoformans was > 64600 nM.
For `Fc1cccc2c1CN=C(c1ccc3c(c1)CCC(F)(F)O3)c1cccn1-2` [Compound 70, 4-(2,2-difluoro-3,4-dihydro-2H-1-benzopyran-6-yl)-7-fluoro-6H-pyrrolo[1,2-a]-[1,4]benzodiazepine], the melting point lay within 158.9 to 159.3 °C. Also, the IC50 with Microsporum canis is 64600 nM. Also, the IC50 in data set [1] is > 64600 nM. Besides, the IC50 in the data set on Trichophyton rubrum was > 64600 nM. For the same molecule, the IC50 in the data set with Sporothrix schenkii is > 64600 nM. Moreover, in the data set with Aspergillus fumigatus, the IC50 is > 64600 nM. The IC50 in the data set on Candida parapsilosis is 759 nM. Further, the IC50 with Cryptococcus neoformans is 955 nM.
